This passage reports IC50 results from ChEMBL document CHEMBL1121623, “Thrombin inhibitors. 3. Carboxyl-containing amide derivatives of N alpha-substituted L-arginine” (J Med Chem, 1980).

The assay deals with Prothrombin (Bos taurus, UniProt P00735). The assay can be described thus: Concentration at which the clotting time was prolonged by twice that of the control by inhibiting thrombin. It is filed as functional. The conditions noted are these: read-out: I50.

As to `CCC1CCN(C(=O)C(CCCN=C(N)N)NS(=O)(=O)c2ccc3cc(OC)c(OC)cc3c2)C(C(=O)O)C1` (centres undefined), the IC50 came to 0.25 µM. `N=C(N)NCCCC(NS(=O)(=O)c1cccc2c1CCCC2)C(=O)N(CC(=O)O)CC1CCCO1` (centres undefined): the IC50 came to 6.5 µM. Turning to `COCCN(CC(=O)O)C(=O)C(CCCN=C(N)N)NS(=O)(=O)c1ccc2cc3c(cc2c1)OCCO3` (centres undefined), the IC50 stood at 57 µM. On to `COc1cc2ccc(S(=O)(=O)NC(CCCN=C(N)N)C(=O)N3CCc4ccccc4C3C(=O)O)cc2cc1OC` (centres undefined), for which the IC50 amounted to 0.7 µM.
